From ChEMBL document CHEMBL1128992, “A Non-peptidic photoactivatable antagonist for mapping the antagonist binding site of the tachykinin NK2 receptor” (Bioorg Med Chem Lett, 1996) come the findings set out here.

One may read the IC50 as the concentration needed to halve the response being measured. Low readings indicate greater potency in that assay, high ones weaker potency in that assay.

For this test, the target named is T1, Substance-K receptor (Homo sapiens, UniProt P21452).
T1 sequence (P21452 whole entry): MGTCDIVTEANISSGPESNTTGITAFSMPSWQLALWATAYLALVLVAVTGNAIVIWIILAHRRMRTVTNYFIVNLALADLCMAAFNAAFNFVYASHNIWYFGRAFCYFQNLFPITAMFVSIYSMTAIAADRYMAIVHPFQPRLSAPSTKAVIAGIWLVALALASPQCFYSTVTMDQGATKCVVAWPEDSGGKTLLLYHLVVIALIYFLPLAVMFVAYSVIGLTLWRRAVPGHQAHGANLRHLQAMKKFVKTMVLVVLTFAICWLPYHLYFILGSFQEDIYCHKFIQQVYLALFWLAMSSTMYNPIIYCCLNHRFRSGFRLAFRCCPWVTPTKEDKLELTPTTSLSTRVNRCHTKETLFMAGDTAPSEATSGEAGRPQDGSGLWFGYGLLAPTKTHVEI
Nature of the test: Binding affinity was determined against human NK2 receptor in CHO cells using [125I]neurokinin A as radioligand. Type of test: cell-based.

The molecule `CN(CC(CCN1CCC(O)(c2ccccc2)CC1)c1ccc(Cl)c(Cl)c1)C(=O)c1cccc(C2(C(F)(F)F)N=N2)c1` (racemic) showed an IC50 of 6.7 nM. This lies in the single-digit nanomolar range.
`CC(=O)NC1(c2ccccc2)CCN(CC[C@H](CN(C)C(=O)c2ccccc2)c2ccc(Cl)c(Cl)c2)CC1` (racemic) [SAREDUTANT]: the IC50 turned out to be 0.8 nM.
